# Data taken from patent US20240384233A1, “Method for Producing Cardiomyocytes by Means of Reprogramming” (Plastech Pharmaceutical Technology Co., Ltd., priority 2020, published 2024).
# Tests used:
# [1] = tested on: neonatal mouse skin fibroblasts (NSF) and mouse cardiac fibroblasts (nCFs); experiment: Substitute for 2C: small molecules of the same signaling pathway (beating cells in GMT NSF, cTnT positive cells in MT nCF); format: cell-based; settings: GMT NSF D18 beating, MT nCF four weeks cTnT; for replacement of Baricitinib (beating cells, number of cTnT-positive cells): combined with SB431542; for replacement of SB431542 (beating cells, number of cTnT-positive cells): combined with Baricitinib
# Description: Specifically, at D-2 (day-2), Myh6-mCherry neonatal mouse skin fibroblasts (NSF) were plated; at D-1 (day-1),the cells were infected with three lentiviruses expressing Gata4, Mef2c and Tbx5 (GMT), respectively; at D0 (day 0), the media were replaced with reprogramming media added with small molecules, and replaced every 3-4 days; andat D18, beating cells were counted. In addition, at D-2, WT mouse cardiac fibroblasts (nCFs) were plated, and residual cardiomyocytes were removed with CD90.2 MACS; at D-1, the cells were infected with virus expressing Mef2c+Tbx5 (MT); at D0, the media were replaced with reprogramming media added with small molecules, and replaced every 3 days; and after four weeks, cTnT positive cells were counted.2C was used as a positive control.
# SB431542 is an inhibitor of TGFβ signaling pathway, and this example analyzed whether other small molecules of this signaling pathway could be combined with Baricitinib, including RepSox, GW788388, SD-208, LY364947, Y-27632, LDN-193189, LY2109761 and Galunisertib. Baricitinib is an inhibitor of Jak pathway, and this example analyzed whether other small molecules of this signaling pathway could be combined with SB431542, including Filgotinib, WP1066, Gandotinib, Ruxolitinib and AZD1480. […] It can be seen that the TGFβ signaling pathway is important for reprogramming into cardiomyocytes; however, at the same time, Baricitinib cannot be replaced by most other compounds targeting Jak-Stat.
# [2] = tested on: Myh6-mCherry neonatal mouse skin fibroblasts (NSF); experiment: GMT-mediated reprogramming of Myh6-mCherry neonatal mouse skin fibroblasts into induced cardiomyocyte like cells (iCM); format: cell-based; settings: for optimal action concentration: cTnT staining, titrated on 2 μM of the other small molecule of 2C
# Description: Reprogramming steps: at d-2, plating cells; at d-1, infecting with virus; andat d0, removing virus-containing medium, and replacing with reprogramming medium. Beating cell count and immunofluorescence assay were performed after approximately 3 weeks.
# iCM reprogramming medium: DMEM/M199 (4:1) supplemented with 10% KnockOut serum replacement (KSR), 10% FBS, 1% GlutaMAX, 1% MEM NEAA, 1% Pen Strep, 2 μg/ml Dox and small molecule mixture 2C (2 μM SB431542, 2 μM Baricitinib).
# At D-2, 24-well plate was coated with 0.1% gelatin and then placed in a cell culture incubator at 37° C. for 30 min, then the gelatin was aspirated, and the 24-well plate was inoculated with 80,000 cells per well. At D-1, MEF medium containing 6 ng/μl polybrene was replaced, the cells were infected with FU-tet-o-Gata4, FU-tet-o-Mef2c, FU-tet-o-Tbx5, FUdeltaGW-rtTA, 200 μl unconcentrated virus per well per virus. At D0, the medium was replaced with iCM reprogramming medium, and replaced every 3-4 days.
# Screening was performed on Myh6-mCherry neonatal mouse dermal fibroblasts. Small molecule library was screened simultaneously with transfection of three genes of GMT (Gata4, Mef2c and Tbx5) to quantify the effect of small molecules on reprogramming by observing the ratio and brightness of reporter genes, as shown in FIG. 1A. Specifically, at D-2 (day-2), Myh6-mCherry neonatal mouse skin fibroblasts (NSF) were plated; at D-1 (day-1), the cells were infected with three lentiviruses expressing Gata4, Mef2c and Tbx5 (GMT), respectively; and at D0 (day 0), the media were replaced with reprogramming media added with small molecules, and replaced every 3-4 days. After three weeks of induction, the number of Myh6-mCherry positive cells was observed and counted to screen for small molecules that promoted the induced cardiomyocyte like cells (iCM).
# The optimal action concentration and optimal action time of 2C were then further investigated. […] First, the optimal action concentration of SB431542 was determined by cardiomyocyte marker cTnT staining after adding different concentrations of SB431542 based on 2 μM Baricitinib. […]
# [3] = tested on: WT mouse cardiac fibroblasts (nCFs); experiment: Replacement of Baricitinib in combination with SB431542 on the basis of MT transduction; format: cell-based; settings: three weeks
# Text: In addition, some small anti-inflammatory molecules have been reported to increase reprogramming-induced cardiomyocyte efficiency, such as Dexamethasone or Nabumetone.
# [4] = tested on: neonatal mouse fibroblasts; experiment: Tyk2 small molecule inhibitors: reprogramming of neonatal mouse fibroblasts into cardiomyocytes (MT+SB431542); format: cell-based; settings: for beating cardiomyocytes: 2 uM SB431542; for cTnI and a-actinin positive cells: 2 uM SB431542, Tyk2 inhibitor 1, 2, 5 and 10 uM
# Description: Neonatal suckling mice within 24 h were ordered from Vital River. In an ultraclean bench, heart tissue was taken, cut with sterilized surgical instruments, added with an appropriate amount of Type II Collagenase (1 mg/mL), digested at 37° C. constant temperature, after full digestion, washed twice with IMDM (20% FBS+1% PS+1% NEAA+1% Glu-Max) medium, resuspended with the medium, and plated in a 10 cm culture dish. After 24 h, fresh IMDM was added, and on the fourth day, CD90.2 (anti-Thy1+) was used for MACS separation. The sorted cells were plated in a 24-well plate 2-5×10^5/well), and infected with Fu-tet-o-Mef2c-T2A-Tbx5 virus and rtTA 24 h after plating. After 24 h, the medium was replaced with reprogramming medium, and replaced every 3 days. Beating cells could be seen at the 4th week, and a large number of cTnI and a-actinin could be seen by immunofluorescence staining.
# 10% FBS, 10% KSR, DMEM/M199 [4:1], 1% PS+1% NEAA+1% Glu-Max, 2 uM SB431542, Tyk2 inhibitor (BMS-986165 or PF-06826647), replaced every 3 days. Tyk2 inhibitor was used at 1, 2, 5 and 10 uM, and the optimal concentration is shown in the concentration gradient curve.
# [5] = tested on: neonatal mouse fibroblasts; experiment: Cardiomyocyte reprogramming with Tyk2 knockdown/knockout plus MT and C1; format: cell-based; settings: combined with transcription factor MT and C1
# Text: (§1) Briefly, shRNAs targeting Tyk2 gene (shTyk2#1, shTyk2#2, shTyk2#3, shTyk2#4, shTyk2#5) were designed, introduced into neonatal mouse fibroblasts together with transcription factor combination MT, and then induced in reprogramming medium containing C1 to test the efficiency of reprogramming into cardiomyocyte-like cells.
# To further confirm the role of specific inhibition of Tyk2 in cardiomyocyte reprogramming, the inventors further designed five different sgRNAs targeting Tyk2 gene, knocked out the Tyk2 gene of neonatal mouse fibroblasts using CRISPR technique, and tested the efficiency of cardiomyocyte reprogramming in the presence of transcription factor MT and C1, respectively. sgNT was a control for non-targeted Tyk2.
# Tyk2 gene = experiment: Knockdown effect of shRNAs on Tyk2 expression; format: cell-based, mouse; settings: FIG. 21C
# Text: as §1
compound,measurement,setting,value
Cc1cc(Nc2nc(N[C@@H](C)c3ncc(F)cn3)ncc2Cl)n[nH]1 [AZD1480],"replacement of Baricitinib (beating cells, number of cTnT-positive cells)",[1],only its structural analogue Ruxolitinib could be used for replacement
CCS(=O)(=O)N1CC(CC#N)(n2cc(-c3ncnc4[nH]ccc34)cn2)C1 [Baricitinib],optimal action concentration,[2],2 µM
O=C(Nc1nc2cccc(-c3ccc(CN4CCS(=O)(=O)CC4)cc3)n2n1)C1CC1 [Filgotinib],"replacement of Baricitinib (beating cells, number of cTnT-positive cells)",[1],only its structural analogue Ruxolitinib could be used for replacement
O=C(NC1CCOCC1)c1ccc(-c2cc(-c3c[nH]nc3-c3ccccn3)ccn2)cc1 [GW788388],"replacement of SB431542 (beating cells, number of cTnT-positive cells)",[1],could be effectively replaced by small molecules of the same signaling pathway
Cc1cccc(-c2nn3c(c2-c2ccnc4ccc(C(N)=O)cc24)CCC3)n1 [Galunisertib],"replacement of SB431542 (beating cells, number of cTnT-positive cells)",[1],could be effectively replaced by small molecules of the same signaling pathway
Cc1cc(Nc2cc(CN3CCOCC3)c3nc(C)c(Cc4ccc(Cl)cc4F)n3n2)n[nH]1 [Gandotinib],"replacement of Baricitinib (beating cells, number of cTnT-positive cells)",[1],only its structural analogue Ruxolitinib could be used for replacement
c1ccc2c(-c3cnn4cc(-c5ccc(N6CCNCC6)cc5)cnc34)ccnc2c1 [LDN-193189],"replacement of SB431542 (beating cells, number of cTnT-positive cells)",[1],could be effectively replaced by small molecules of the same signaling pathway
c1ccc(-c2[nH]ncc2-c2ccnc3ccccc23)nc1 [LY364947],"replacement of SB431542 (beating cells, number of cTnT-positive cells)",[1],could be effectively replaced by small molecules of the same signaling pathway
c1ccc(-c2nn3c(c2-c2ccnc4cc(OCCN5CCOCC5)ccc24)CCC3)nc1 [LY2109761],"replacement of SB431542 (beating cells, number of cTnT-positive cells)",[1],could be effectively replaced by small molecules of the same signaling pathway
COc1ccc2cc(CCC(C)=O)ccc2c1 [Nabumetone],replacement of the effect of Baricitinib,[3],could not replace the effect of Baricitinib
Cn1cc(-c2cn3nccc3c(-c3cnn([C@]4(CC#N)C[C@@H](C#N)C4)c3)n2)cn1 [PF-06826647],beating cardiomyocytes,[4],could induce beating cardiomyocytes from fibroblasts
same,cTnI and a-actinin positive cells,[4],could induce a number of cardiac specific markers cTnI and a-actinin positive cells from fibroblasts
Cc1cccc(-c2[nH]ncc2-c2ccc3ncccc3n2)n1 [RepSox],"replacement of SB431542 (beating cells, number of cTnT-positive cells)",[1],could be effectively replaced by small molecules of the same signaling pathway
NC(=O)c1ccc(-c2nc(-c3ccc4c(c3)OCO4)c(-c3ccccn3)[nH]2)cc1 [SB431542],optimal action concentration,[2],2 µM
same,efficiency of reprogramming induced cardiomyocytes (number of Myh6-mCherry positive cells),[2]; three weeks of induction,increase the efficiency of reprogramming induced cardiomyocytes
Fc1ccc(Cl)cc1-c1nc(Nc2ccncc2)c2nccnc2n1 [SD-208],"replacement of SB431542 (beating cells, number of cTnT-positive cells)",[1],could be effectively replaced by small molecules of the same signaling pathway
C[C@H](NC(=O)/C(C#N)=C/c1cccc(Br)n1)c1ccccc1 [WP1066],"replacement of Baricitinib (beating cells, number of cTnT-positive cells)",[1],only its structural analogue Ruxolitinib could be used for replacement
C[C@@H](N)[C@H]1CC[C@H](C(=O)Nc2ccncc2)CC1 [Y-27632],"replacement of SB431542 (beating cells, number of cTnT-positive cells)",[1],could be effectively replaced by small molecules of the same signaling pathway
BMS-986165,beating cardiomyocytes,[4],could induce beating cardiomyocytes from fibroblasts
same,cTnI and a-actinin positive cells,[4],could induce a number of cardiac specific markers cTnI and a-actinin positive cells from fibroblasts
"shTyk2#1: shRNA targeting Tyk2 gene, SEQ ID NO: 1 (CCCATCTTCATTAGCTGGGAACTCGAGTTCCCAGCTAATGAAGATGGG)",efficiency of cardiomyocyte reprogramming (cTnI and a-actinin immunofluorescence),[5],could achieve similar efficiency of cardiomyocyte reprogramming as small molecule combination 2C
same,knockdown of Tyk2 expression,Tyk2 gene,could knockdown the expression of Tyk2
"shTyk2#2: shRNA targeting Tyk2 gene, SEQ ID NO: 2 (CCCTTCATCAAGCTAAGTGATCTCGAGATCACTTAGCTTGATGAAGGG)",efficiency of cardiomyocyte reprogramming (cTnI and a-actinin immunofluorescence),[5],could achieve similar efficiency of cardiomyocyte reprogramming as small molecule combination 2C
same,knockdown of Tyk2 expression,Tyk2 gene,could knockdown the expression of Tyk2
"shTyk2#3: shRNA targeting Tyk2 gene, SEQ ID NO: 3 (CCACTTTAAGAATGAGAGCTTCTCGAGAAGCTCTCATTCTTAAAGTGG)",efficiency of cardiomyocyte reprogramming (cTnI and a-actinin immunofluorescence),[5],could achieve similar efficiency of cardiomyocyte reprogramming as small molecule combination 2C
same,knockdown of Tyk2 expression,Tyk2 gene,could knockdown the expression of Tyk2
